Patent publication US12012392B2, “Sulfonamide carboxamide compounds” (Inflazome Limited, priority 2017, dated 2024)
Read-outs that look alike come from different tables or passages of the source.

Legend:
NLRP3 [1] = target: T1, NLRP3 (Homo sapiens, UniProt Q96P20); experiment: Human whole blood IL1β release assay; type: cell-based; design: Plate out 80 μl of whole blood containing 1 μg/ml of LPS; from tissue; host or cells: human whole blood from healthy donors, LPS-primed, nigericin-stimulated; details: LPS 1 μg/ml, nigericin 10 μM, IL-1β AlphaLisa, read-out: HWB IC50
Method: For systemic delivery, the ability to inhibit NLRP3 when the compounds are present within the bloodstream is of great importance. For this reason, the NLRP3 inhibitory activity of a number of compounds in human whole blood was investigated in accordance with the following protocol.
Human whole blood in Li-heparin tubes was obtained from healthy donors from a volunteer donor panel. • 1. Plate out 80 μl of whole blood containing 1 μg/ml of LPS in 96-well, clear bottom cell culture plate (Corning #3585) • 2. Add […] compound (8 points half-log dilution with 10 μM top dose) or vehicle (DMSO 0.1% FAC) to the appropriate wells • 3. Incubate for 3 hrs at 37° C., 5% CO2 • 4. Add 10 μl Nigericin (Sigma #N7143) (10 μM FAC) to all wells • 5. Incubate for 1 hr at 37° C., 5 CO2 • 6. At the end of the incubation period, spin plates at 300×g for 5 mins to pellet cells and remove 20 μl of supernatant and add to 96-well v-bottom plates for […] analysis (note: these plates containing the supernatants can be stored at −80° C. to be analysed at a later date) • 7. IL-1β was measured according to the manufacturer protocol (Perkin Elmer-AlphaLisa IL-1 Kit AL220F-5000) • 8. IC50 data is fitted to anon-linear regression equation (log inhibitor vs response-variable slope 4-parameters)

[2] = PK protocol (intravenous and oral administration); type: in vivo, male Sprague Dawley rats; details: male, Sprague Dawley, plasma, rat; for Vd: read-out: Vdss
Method: Pharmacokinetic parameters were determined in male Sprague Dawley rats (Charles River, UK, 250-350 g; or Vital River Laboratory Animal Technology Co Ltd, Beijing, China, 7-9 weeks old). Animals were individually housed during the study and maintained under a 12 h light/dark cycle. Animals had free access to food and water except that some orally dosed animals were food deprived overnight prior to the study. For intravenous administration, compounds were formulated as a solution in water or DMSO:PBS [10:90] in 2 mL/kg dosing volume and administered via tail vein. For oral administration, compounds were formulated as a solution in water or DMSO:water [10:90] in 5 mL/kg dosing volume and administered orally.
Serial blood samples (about 120-300 μL) were taken from each animal at each of 8 time-points post dose (0.083, 0.25, 0.5, 1, 2, 4, 8 and 24 h) or at each of 12 time-points post dose (0.03, 0.1, 0.17, 0.25, 0.5, 1, 2, 4, 6, 8, 12 and 24 h) or pre-dose and at each of 9 time-points post dose (0.25, 0.5, 1, 2, 4, 6, 8, 12 and 24 h). Samples were held on ice for no longer than 30 minutes before centrifugation (10,000 rpm (8,385 g) for 3 minutes; or 5,696 rpm (3,000 g) for 15 minutes) for plasma generation. Plasma was frozen on dry ice prior to bioanalysis. PK parameters were generated from LC-MS/MS data using Dotmatics or Phoenix WinNonlin 6.3 software.

NLRP3 [3] = target: T1, NLRP3; experiment: THP-1 cells pyroptosis assay; type: cell-based; design: Seed THP-1 cells (25,000 cells/well) containing 1.0 μg/ml LPS; host or cells: THP-1 cells, LPS-primed, nigericin-stimulated; details: LPS 1 μg/ml, nigericin 5 μM, resazurin read-out
In short: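 THP-1 cells (25,000/well) primed with 1 μg/ml LPS in serum-free RPMI, given compound (8-point half-log, 10 μM top, 0.1% DMSO) for 3 hrs, then nigericin 5 μM for 1 hr at 37° C. Viability of remaining cells read by resazurin (100 μM, 1–2 hrs) fluorescence; IC50 from 4-parameter fit.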

T1 sequence (Q96P20 whole entry): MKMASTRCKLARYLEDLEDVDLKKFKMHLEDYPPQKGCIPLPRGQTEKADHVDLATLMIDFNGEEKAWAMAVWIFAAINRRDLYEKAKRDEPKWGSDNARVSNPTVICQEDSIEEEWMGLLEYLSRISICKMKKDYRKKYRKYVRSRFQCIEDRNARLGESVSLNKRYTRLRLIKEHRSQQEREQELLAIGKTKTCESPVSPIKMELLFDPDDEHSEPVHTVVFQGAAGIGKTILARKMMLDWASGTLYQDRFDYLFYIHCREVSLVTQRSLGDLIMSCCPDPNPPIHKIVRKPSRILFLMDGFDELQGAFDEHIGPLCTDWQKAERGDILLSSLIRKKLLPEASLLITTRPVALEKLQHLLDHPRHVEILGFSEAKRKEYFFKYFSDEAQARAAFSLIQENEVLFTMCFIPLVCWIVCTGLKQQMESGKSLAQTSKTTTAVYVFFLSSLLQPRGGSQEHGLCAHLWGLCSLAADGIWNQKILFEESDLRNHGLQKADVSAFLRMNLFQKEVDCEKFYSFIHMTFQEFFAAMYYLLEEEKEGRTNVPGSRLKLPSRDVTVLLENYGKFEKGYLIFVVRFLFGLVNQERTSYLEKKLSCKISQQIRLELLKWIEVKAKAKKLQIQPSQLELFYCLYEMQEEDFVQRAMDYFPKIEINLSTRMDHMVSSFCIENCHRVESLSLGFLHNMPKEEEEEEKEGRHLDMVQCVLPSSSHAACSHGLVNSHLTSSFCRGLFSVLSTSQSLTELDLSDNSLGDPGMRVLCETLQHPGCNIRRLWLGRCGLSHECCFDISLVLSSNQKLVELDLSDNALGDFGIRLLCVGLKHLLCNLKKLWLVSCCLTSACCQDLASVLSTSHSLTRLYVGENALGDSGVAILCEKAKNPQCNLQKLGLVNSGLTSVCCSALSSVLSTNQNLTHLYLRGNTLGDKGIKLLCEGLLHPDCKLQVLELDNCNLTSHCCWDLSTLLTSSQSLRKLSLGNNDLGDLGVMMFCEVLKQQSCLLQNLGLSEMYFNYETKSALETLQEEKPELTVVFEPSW

Row | SMILES | IC50 (NLRP3 [1]) | AUC ([2]; intravenous, dose 1 mg/kg) | clearance ([2]; intravenous, dose 1 mg/kg) | half-life ([2]; intravenous, dose 1 mg/kg) | Vd ([2]; intravenous, dose 1 mg/kg) | IC50 (NLRP3 [3]) | other results
1 | C[C@H](CO)n1ccc(S(=O)(=O)NC(=O)Nc2c3c(cc4c2CCC4)CCC3)n1 [Example 13, (R)—N-((1,2,3,5,6,7-Hexahydro-s-indacen-4-yl)carbamoyl)-1-(1-hydroxypropan-2-yl)-1H-pyrazole-3-sulfonamide] | < 400 nM | 38700 ng·h/mL | 0.4 mL/min/kg | 3.6 h | 0.09 L/kg | 160 to 640 nM | 
2 | CC(C)(O)Cn1ccc(S(=O)(=O)NC(=O)Nc2c3c(cc4c2CCC4)CCC3)n1 [Example 10, N-((1,2,3,5,6,7-Hexahydro-s-indacen-4-yl)carbamoyl)-1-(2-hydroxy-2-methylpropyl)-1H-pyrazole-3-sulfonamide] | 400 to 800 nM | 4290 ng·h/mL | 3.9 mL/min/kg | 2.9 h | 0.61 L/kg | 40 to 160 nM | AUC ([2]; oral, dose 3 mg/kg): 9660 ng·h/mL; CL/F ([2]; oral, dose 3 mg/kg): 5.2 mL/min/kg; Cmax ([2]; oral, dose 3 mg/kg): 1770 ng/mL; Tmax ([2]; oral, dose 3 mg/kg): 0.29 h; bioavailability ([2]; oral, dose 3 mg/kg): 75%; half-life ([2]; oral, dose 3 mg/kg): 3.5 h
3 | O=C(Nc1c2c(cc3c1CCC3)CCC2)NS(=O)(=O)c1ccn(C2CCOC2)n1 (centres unmarked) [Example 1, N-((1,2,3,5,6,7-Hexahydro-s-indacen-4-yl)carbamoyl)-1-(tetrahydrofuran-3-yl)-1H-pyrazole-3-sulfonamide] | 800 to 1600 nM | 8620 ng·h/mL | 1.9 mL/min/kg | 3.4 h | 0.43 L/kg | 160 to 640 nM | 
4 | O=C(Nc1c2c(cc3c1CCC3)CCC2)NS(=O)(=O)c1ccn(CC2CCCO2)n1 (centres unmarked) [Example 3, N-((1,2,3,5,6,7-Hexahydro-s-indacen-4-yl)carbamoyl)-1-((tetrahydrofuran-2-yl)methyl)-1H-pyrazole-3-sulfonamide] | 800 to 1600 nM | 3680 ng·h/mL | 4.5 mL/min/kg | 6.7 h | 1.57 L/kg | 40 to 160 nM | 
5 | COCCn1ccc(S(=O)(=O)NC(=O)Nc2c3c(cc4c2CCC4)CCC3)n1 [Example 2, N-((1,2,3,5,6,7-Hexahydro-s-indacen-4-yl)carbamoyl)-1-(2-methoxyethyl)-1H-pyrazole-3-sulfonamide] | 800 to 1600 nM | 1030 ng·h/mL | 16.2 mL/min/kg | 0.3 h | 0.3 L/kg | 160 to 640 nM | 
6 | C[C@H](O)Cn1ccc(S(=O)(=O)NC(=O)Nc2c3c(cc4c2CCC4)CCC3)n1 [Example 11, (S)—N-((1,2,3,5,6,7-Hexahydro-s-indacen-4-yl)carbamoyl)-1-(2-hydroxypropyl)-1H-pyrazole-3-sulfonamide] | < 400 nM | 7380 ng·h/mL | 2.3 mL/min/kg | 2.9 h | 0.36 L/kg | 40 to 160 nM | 
7 | C[C@@H](O)Cn1ccc(S(=O)(=O)NC(=O)Nc2c3c(cc4c2CCC4)CCC3)n1 [Example 16, (R)—N-((1,2,3,5,6,7-Hexahydro-s-indacen-4-yl)carbamoyl)-1-(2-hydroxypropyl)-1H-pyrazole-3-sulfonamide] | 400 to 800 nM | 10200 ng·h/mL | 1.8 mL/min/kg | 3.8 h | 0.41 L/kg | 40 to 160 nM | AUC ([2]; oral, dose 3 mg/kg): 19600 ng·h/mL; CL/F ([2]; oral, dose 3 mg/kg): 2.6 mL/min/kg; Cmax ([2]; oral, dose 3 mg/kg): 3960 ng/mL; Tmax ([2]; oral, dose 3 mg/kg): 0.83 h; bioavailability ([2]; oral, dose 3 mg/kg): 63.8%; half-life ([2]; oral, dose 3 mg/kg): 3.2 h

Continued, in another order:

Row | IC50 (NLRP3 [1]) | AUC ([2]; intravenous, dose 1 mg/kg) | clearance ([2]; intravenous, dose 1 mg/kg) | half-life ([2]; intravenous, dose 1 mg/kg) | Vd ([2]; intravenous, dose 1 mg/kg) | IC50 (NLRP3 [3]) | SMILES | other results
8 | 400 to 800 nM |  |  |  |  | 40 to 160 nM | COCCN(CCOC)C(=O)c1cc(S(=O)(=O)NC(=O)Nc2c3c(cc4c2CCC4)CCC3)nn1C [Example 72, 3-(N-((1,2,3,5,6,7-Hexahydro-s-indacen-4-yl)carbamoyl)sulfamoyl)-N,N-bis(2-methoxyethyl)-1-methyl-1H-pyrazole-5-carboxamide] | AUC ([2]; intravenous, dose 2.88 mg/kg): 330 ng·h/mL; clearance ([2]; intravenous, dose 2.88 mg/kg): 149 mL/min/kg; half-life ([2]; intravenous, dose 2.88 mg/kg): 0.2 h; Vd ([2]; intravenous, dose 2.88 mg/kg): 1.84 L/kg
9 | < 400 nM |  |  |  |  | < 40 nM | CCn1nc(S(=O)(=O)NC(=O)Nc2c3c(cc4c2CCC4)CCC3)cc1C1(O)COC1 [Example 46, 1-Ethyl-N-((1,2,3,5,6,7-hexahydro-s-indacen-4-yl)carbamoyl)-5-(3-hydroxyoxetan-3-yl)-1H-pyrazole-3-sulfonamide] | AUC ([2]; intravenous, dose 1.42 mg/kg): 2380 ng·h/mL; clearance ([2]; intravenous, dose 1.42 mg/kg): 10 mL/min/kg; half-life ([2]; intravenous, dose 1.42 mg/kg): 1.6 h; Vd ([2]; intravenous, dose 1.42 mg/kg): 0.56 L/kg
10 | < 400 nM | 3880 ng·h/mL | 4.6 mL/min/kg | 1.1 h | 0.35 L/kg | < 40 nM | COC1(c2cc(S(=O)(=O)NC(=O)Nc3c4c(cc5c3CCC5)CCC4)nn2C2CC2)COC1 [Example 38, 1-Cyclopropyl-N-((1,2,3,5,6,7-hexahydro-s-indacen-4-yl)carbamoyl)-5-(3-methoxyoxetan-3-yl)-1H-pyrazole-3-sulfonamide] | 
11 | 400 to 800 nM | 1160 ng·h/mL | 14.4 mL/min/kg | 2.9 h | 2.24 L/kg | 40 to 160 nM | COCCN(C)C(=O)c1cc(S(=O)(=O)NC(=O)Nc2c3c(cc4c2CCC4)CCC3)nn1C [Example 73, 3-(N-((1,2,3,5,6,7-Hexahydro-s-indacen-4-yl)carbamoyl)sulfamoyl)-N-(2-methoxyethyl)-N,1-dimethyl-1H-pyrazole-5-carboxamide] | AUC ([2]; oral, dose 3 mg/kg): 2420 ng·h/mL; Cmax ([2]; oral, dose 3 mg/kg): 701 ng/mL
12 | < 400 nM | 1280 ng·h/mL | 13.3 mL/min/kg | 11.5 h | 3.48 L/kg | < 40 nM | COC1(c2cc(S(=O)(=O)NC(=O)Nc3c4c(cc5c3CCC5)CCC4)nn2C)COC1 [Example 53, N-((1,2,3,5,6,7-Hexahydro-s-indacen-4-yl)carbamoyl)-5-(3-methoxyoxetan-3-yl)-1-methyl-1H-pyrazole-3-sulfonamide] | 
13 | < 400 nM |  |  |  |  | 40 to 160 nM | CC(O)C(C)n1ccc(S(=O)(=O)NC(=O)Nc2c3c(cc4c2CCC4)CCC3)n1 (racemic) [Example 26, N-((1,2,3,5,6,7-Hexahydro-s-indacen-4-yl)carbamoyl)-1-(3-hydroxybutan-2-yl)-1H-pyrazole-3-sulfonamide] | AUC ([2]; intravenous, dose 1.74 mg/kg): 8060 ng·h/mL; clearance ([2]; intravenous, dose 1.74 mg/kg): 4.2 mL/min/kg; half-life ([2]; intravenous, dose 1.74 mg/kg): 3.6 h; Vd ([2]; intravenous, dose 1.74 mg/kg): 0.6 L/kg
14 | < 400 nM | 948 ng·h/mL | 17.6 mL/min/kg | 2.9 h | 1.74 L/kg | < 40 nM | COC1(c2cc(S(=O)(=O)NC(=O)Nc3c4c(cc5c3CCC5)CCC4)nn2C)CCOC1 (centres unmarked) [Example 48, N-((1,2,3,5,6,7-Hexahydro-s-indacen-4-yl)carbamoyl)-5-(3-methoxytetrahydrofuran-3-yl)-1-methyl-1H-pyrazole-3-sulfonamide] | 
15 | < 400 nM |  |  |  |  | < 40 nM | CCn1nc(S(=O)(=O)NC(=O)Nc2c3c(cc4c2CCC4)CCC3)cc1C1(OC)COC1 [Example 45, 1-Ethyl-N-((1,2,3,5,6,7-hexahydro-s-indacen-4-yl)carbamoyl)-5-(3-methoxyoxetan-3-yl)-1H-pyrazole-3-sulfonamide] | AUC ([2]; intravenous, dose 2.99 mg/kg): 2320 ng·h/mL; clearance ([2]; intravenous, dose 2.99 mg/kg): 21.6 mL/min/kg; half-life ([2]; intravenous, dose 2.99 mg/kg): 0.8 h; Vd ([2]; intravenous, dose 2.99 mg/kg): 1.11 L/kg
